The values below come from patent US12421230B2, “Tricyclic heteroaryl compounds useful as IRAK4 inhibitors” (BRISTOL-MYERS SQUIBB COMPANY, priority 2020, dated 2025).

Assay [1] addresses T1, IRAK4 (Homo sapiens, UniProt Q9NWZ3).
T1 sequence (Q9NWZ3 1-460): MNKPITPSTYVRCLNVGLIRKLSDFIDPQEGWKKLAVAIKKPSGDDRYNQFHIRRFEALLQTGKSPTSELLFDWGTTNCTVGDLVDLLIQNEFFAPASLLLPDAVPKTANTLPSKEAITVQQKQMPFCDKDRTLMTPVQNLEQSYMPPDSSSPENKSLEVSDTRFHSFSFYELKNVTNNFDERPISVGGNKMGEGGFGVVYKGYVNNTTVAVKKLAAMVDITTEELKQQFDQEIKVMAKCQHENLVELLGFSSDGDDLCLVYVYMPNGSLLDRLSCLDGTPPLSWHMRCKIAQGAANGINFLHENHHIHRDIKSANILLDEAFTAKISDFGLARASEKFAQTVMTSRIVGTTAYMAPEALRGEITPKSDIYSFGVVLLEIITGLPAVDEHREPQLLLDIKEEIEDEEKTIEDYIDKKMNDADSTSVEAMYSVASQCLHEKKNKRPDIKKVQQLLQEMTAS
Briefly: IRAK4 Inhibition Assay. It is filed as biochemical. Particulars: ATP 500 μM; fluoresceinated peptide 1.5 μM; IRAK4 0.6 nM; 60 min room temperature; Caliper LABCHIP. How it is done: The assays were performed in U-bottom 384-well plates. The final assay volume was 30 μL prepared from 15 μL additions of enzyme and substrates (fluoresceinated peptide and ATP) and test compounds in assay buffer (20 mM HEPES pH 7.2, 10 mM MgCl2, 0.015% Brij 35 and 4 mM DTT). The reaction was initiated by the combination of IRAK4 with substrates and test compounds. The reaction mixture was incubated at room temperature for 60 min. and terminated by adding 45 μL of 35 mM EDTA to each sample. The reaction mixture was analyzed on the Caliper LABCHIP® 3000 (Caliper, Hopkinton, MA) by electrophoretic separation of the fluorescent substrate and phosphorylated product. Inhibition data were calculated by comparison to no enzyme control reactions for 100% inhibition and vehicle-only reactions for 0% inhibition. The final concentrations of reagents in the assays are ATP, 500 μM; FL-IPTSPITTTYFFFKKK peptide 1.5 μM; IRAK4, 0.6 nM; and DMSO, 1.6%.

The subject of assay [2] is Human whole blood. Briefly: IRAK4 Whole Blood Assay. It is filed as cell-based. Conditions: stimulated with TLR2 agonist lipoteichoic acid 10 μg/mL for 5 hours, IL-6 levels. How it is done: Human whole blood containing the anti-coagulant ACD-A was plated in 384-well plate (25 μL/well) and incubated with compounds for 60 minutes at 37° C. in a 5% CO2 incubator. The blood was stimulated with a TLR2 agonist, 10 μg/mL final concentration of lipoteichoic acid (Invivogen, San Diego, CA) in 25 μL RPMI (Gibco) for 5 hours in a 5% CO2 incubator. At the end of the incubation, plates were centrifuged at 2300 rpm for 5 minutes. Supernatants were harvested and analyzed for IL-6 levels by Flow Cytometry beads assay (BD Biosciences, San Jose, CA).

As usually defined, the IC50 is the point on the concentration scale where inhibition reaches its midpoint. For orientation: EC50 means the midpoint of the concentration-response curve. As for `CC(C)Nc1c(C(=O)NC[C@@H](F)C(C)(C)O)cnc2c1[nH]c1cc(C#N)ccc12` [Example 1, (R)-7-cyano-N-(2-fluoro-3-hydroxy-3-methylbutyl)-4-(isopropylamino)-5H-pyrido [3,2-b]indole-3-carboxamide], in assay [1], the IC50 was 0.002 µM. For the same compound, in assay [2], a half-maximal effect (EC50) was put at 0.43 µM.

Take `CCNc1c(C(=O)NC[C@@H](F)C(C)(C)O)cnc2c1[nH]c1cc(C#N)ccc12` [Example 2, (R)-7-cyano-4-(ethylamino)-N-(2-fluoro-3-hydroxy-3-methylbutyl)-5H-pyrido[3,2-b]indole-3-carboxamide]: in assay [1], the IC50 came to 0.0016 µM. Also, the midpoint of the response in assay [2], the EC50, lay at 1.3 µM.

Take `CC(C)(O)[C@H](F)CNC(=O)c1cnc2c([nH]c3cc(C#N)ccc32)c1NC1CC(F)(F)C1` [Example 3, (R)-7-cyano-4-((3,3-difluorocyclobutyl)amino)-N-(2-fluoro-3-hydroxy-3-methylbutyl)-5H-pyrido[3,2-b]indole-3-carboxamide]: in assay [1], the 50% inhibitory concentration (IC50) worked out at 0.019 µM. Further, in assay [2], a half-maximal effect (EC50) was put at 2.47 µM.

`CC(C)(O)[C@H](F)CNC(=O)c1cnc2c([nH]c3cc(C#N)ccc32)c1NC1CCC1` [Example 4, (R)-7-cyano-4-(cyclobutylamino)-N-(2-fluoro-3-hydroxy-3-methylbutyl)-5H-pyrido[3,2-b]indole-3-carboxamide]: in assay [1], the IC50 worked out at 0.002 µM. The compound also returned an EC50 in assay [2] of 1.99 µM.

In the case of `CC(C)Nc1c(C(=O)NCCC(C)(C)O)cnc2c1[nH]c1cc(C#N)ccc12` [Example 5, 7-cyano-N-(3-hydroxy-3-methylbutyl)-4-(isopropylamino)-5H-pyrido[3,2-b]indole-3-carboxamide], the IC50 in assay [1] was determined as 0.0038 µM. Moreover, the EC50 in assay [2] was found to be 1.44 µM.

Turning to `CC(C)Nc1c(C(=O)N[C@H]2CC[C@H](O)CC2)cnc2c1[nH]c1cc(C#N)ccc12` [Example 10, 7-cyano-N-((1R,4R)-4-hydroxycyclohexyl)-4-(isopropylamino)-5H-pyrido[3,2-b]indole-3-carboxamide], the IC50 in assay [1] was determined as 0.012 µM. Further, it took 2.89 µM to reach a half-maximal effect in assay [2] (EC50).

Consider `CC(C)Nc1c(C(=O)N[C@H]2CC[C@H](N)CC2)cnc2c1[nH]c1cc(C#N)ccc12` [Example 12, N-((1R,4R)-4-aminocyclohexyl)-7-cyano-4-(isopropylamino)-5H-pyrido[3,2-b]indole-3-carboxamide], for which, in assay [1], the IC50 is 0.0086 µM. This compound also gave an EC50 in assay [2] of 2.72 µM.

Consider `CC(=O)N[C@H]1CC[C@H](NC(=O)c2cnc3c([nH]c4cc(C#N)ccc43)c2NC(C)C)CC1` [Example 13, N-((1R,4R)-4-acetamidocyclohexyl)-7-cyano-4-(isopropylamino)-5H-pyrido[3,2-b]indole-3-carboxamide], for which, in assay [1], the IC50 amounted to 0.0037 µM. This compound also displayed an EC50 in assay [2] of 2.21 µM.

`CC(C)Nc1c(C(=O)NCc2cocn2)cnc2c1[nH]c1cc(C#N)ccc12` [Example 14, 7-cyano-4-(isopropylamino)-N-(oxazol-4-ylmethyl)-5H-pyrido[3,2-b]indole-3-carboxamide]: the IC50 in assay [1] worked out at 0.019 µM. Besides, the concentration for a half-maximal effect (EC50) in assay [2] was 3.5 µM.

For the compound `Cc1cc(CNC(=O)c2cnc3c([nH]c4cc(C#N)ccc43)c2NC(C)C)on1` [Example 15, 7-cyano-4-(isopropylamino)-N-((3-methylisoxazol-5-yl)methyl)-5H-pyrido[3,2-b]indole-3-carboxamide], the IC50 in assay [1] was 0.016 µM. Also, the EC50 in assay [2] stood at 1.45 µM.

Regarding `COCCNC(=O)c1cnc2c([nH]c3cc(C#N)ccc32)c1NC(C)C` [Example 17, 7-cyano-4-(isopropylamino)-N-(2-methoxyethyl)-5H-pyrido[3,2-b]indole-3-carboxamide], the IC50 in assay [1] came to 0.013 µM. For the same compound, the EC50 in assay [2] turned out to be 4.73 µM.

With `CC(C)Nc1c(C(=O)NCc2nccs2)cnc2c1[nH]c1cc(C#N)ccc12` [Example 18, 7-cyano-4-(isopropylamino)-N-(thiazol-2-ylmethyl)-5H-pyrido[3,2-b]indole-3-carboxamide], the IC50 in assay [1] stood at 0.017 µM. For the same compound, the EC50 in assay [2] turned out to be 8.17 µM.

Turning to `CC(C)Nc1c(C(=O)NCc2ncn[nH]2)cnc2c1[nH]c1cc(C#N)ccc12` [Example 20, N-((1H-1,2,4-triazol-5-yl)methyl)-7-cyano-4-(isopropylamino)-5H-pyrido[3,2-b] indole carboxamide], in assay [1], the IC50 was determined as 0.014 µM. Moreover, in assay [2], the midpoint of the response, the EC50, lay at 1.05 µM.

On to `CC(C)CCNC(=O)c1cnc2c([nH]c3cc(C#N)ccc32)c1NC(C)C` [Example 21, 7-cyano-N-isopentyl-4-(isopropylamino)-5H-pyrido[3,2-b] indole carboxamide], for which, in assay [1], the concentration for half-maximal inhibition (IC50) was determined as 0.0021 µM. In addition, the EC50 in assay [2] is 1.34 µM.

Consider `CC(C)(O)[C@H](F)CNC(=O)c1cnc2c([nH]c3cc(C#N)ccc32)c1NC1COC1` [Example 22, (R)-7-cyano-N-(2-fluoro-3-hydroxy-3-methylbutyl)-4-(oxetanylamino)-5H-pyrido[3,2-b]indole-3-carboxamide], for which, in assay [1], the IC50 is 0.0021 µM. For the same compound, the EC50 in assay [2] amounted to 0.23 µM.

As to `CC(C)(O)[C@H](F)CNC(=O)c1cnc2c([nH]c3cc(C#N)ccc32)c1Nc1cnn(CC(F)F)c1` [Example 23, (R)-7-cyano-4-((1-(2,2-difluoroethyl)-1H-pyrazol-4-yl)amino)-N-(2-fluoro-3-hydroxy-3-methylbutyl)-5H-pyrido[3,2-b]indole-3-carboxamide], the IC50 in assay [1] worked out at 0.015 µM. Moreover, in assay [2], the concentration giving a half-maximal response (EC50) is greater than 10 µM.

As for `CC(O)CCNC(=O)c1cnc2c([nH]c3cc(C#N)ccc32)c1NC(C)C` (stereo not drawn) [Example 25, 7-cyano-N-(3-hydroxybutyl)-4-(isopropylamino)-5H-pyrido[3,2-b]indole-3-carboxamide], the IC50 in assay [1] came to 0.0035 µM. This compound also displayed an EC50 in assay [2] of 1.5 µM.

As to `CC(C)Nc1c(C(=O)NCCC(F)(F)F)cnc2c1[nH]c1cc(C#N)ccc12` [Example 27, 7-cyano-4-(isopropylamino)-N-(3,3,3-trifluoropropyl)-5H-pyrido[3,2-b]indole-3-carboxamide], in assay [1], the half-maximal inhibitory concentration (IC50) stood at 0.013 µM. In addition, the EC50 in assay [2] was greater than 10 µM.

For the compound `C[C@@H](CO)Nc1c(C(=O)NCCC(C)(C)O)cnc2c1[nH]c1cc(C#N)ccc12` [Example 30, (S)-7-cyano-N-(3-hydroxy-3-methylbutyl)-4-((1-hydroxypropan-2-yl)amino)-5H-pyrido[3,2-b]indole-3-carboxamide], the concentration for half-maximal inhibition (IC50) in assay [1] was determined as 0.0053 µM. Also, the midpoint of the response in assay [2], the EC50, lay at 3.38 µM.

`CCCc1nc(-c2cnc3c([nH]c4cc(C#N)ccc43)c2NC(C)C)n[nH]1` [Example 71, 4-(isopropylamino)-3-(5-propyl-1H-1,2,4-triazol-3-yl)-5H-pyrido[3,2-b]indole carbonitrile]: the IC50 in assay [1] was found to be 0.5 µM.

On to `CCCc1noc(-c2cnc3c([nH]c4cc(C#N)ccc43)c2NC(C)C)n1` [Example 72, 4-(isopropylamino)-3-(3-propyl-1,2,4-oxadiazol-5-yl)-5H-pyrido[3,2-b]indole-7-carbonitrile], for which the IC50 in assay [1] amounted to 0.36 µM.

For `CC(C)CCn1cc(-c2cnc3c([nH]c4cc(C#N)ccc43)c2NC(C)C)nn1` [Example 73, 3-(1-isopentyl-1H-1,2,3-triazol-4-yl)-4-(isopropylamino)-5H-pyrido[3,2-b]indole-7-carbonitrile], the IC50 in assay [1] amounted to 0.0015 µM.

For the compound `CC(C)Nc1c(-c2cc(C3CNCCO3)no2)cnc2c1[nH]c1cc(C#N)ccc12` (stereo not drawn) [Example 78, 4-(isopropylamino)-3-(3-(morpholin-2-yl)isoxazol-5-yl)-5H-pyrido[3,2-b]indole-7-carbonitrile], the half-maximal inhibitory concentration (IC50) in assay [1] turned out to be 0.026 µM.

Turning to `CC(C)Nc1c(-c2cc(C3CCCNC3)no2)cnc2c1[nH]c1cc(C#N)ccc12` (stereo not drawn) [Example 79, 4-(isopropylamino)-3-(3-(piperidin-3-yl)isoxazol-5-yl)-5H-pyrido[3,2-b]indole-7-carbonitrile], in assay [1], the IC50 came to 0.022 µM.

As for `CC(C)Nc1c(C(=O)NC[C@@H](F)C(C)(C)O)cnc2[nH]c3ccc(C#N)cc3c12` [Example 81, (R)-6-cyano-N-(2-fluoro-3-hydroxy-3-methylbutyl)-4-(isopropylamino)-9H-pyrido [2,3-b]indole-3-carboxamide], in assay [1], the IC50 turned out to be 0.17 µM.

Turning to `CC(C)Nc1c(C(=O)NCCC2CC2)cnc2[nH]c3ccc(C#N)cc3c12` [Example 82, 6-cyano-N-(2-cyclopropylethyl)-4-(isopropylamino)-9H-pyrido[2,3-b]indole-3-carboxamide], the IC50 in assay [1] was 0.65 µM.
